One test deals with T1, full length AKT E17K (Homo sapiens, UniProt P31749, E17K).
T1 construct: host or cells: HEK-293 (ATCC CRL-1573)
T1 sequence (P31749 whole entry E17K): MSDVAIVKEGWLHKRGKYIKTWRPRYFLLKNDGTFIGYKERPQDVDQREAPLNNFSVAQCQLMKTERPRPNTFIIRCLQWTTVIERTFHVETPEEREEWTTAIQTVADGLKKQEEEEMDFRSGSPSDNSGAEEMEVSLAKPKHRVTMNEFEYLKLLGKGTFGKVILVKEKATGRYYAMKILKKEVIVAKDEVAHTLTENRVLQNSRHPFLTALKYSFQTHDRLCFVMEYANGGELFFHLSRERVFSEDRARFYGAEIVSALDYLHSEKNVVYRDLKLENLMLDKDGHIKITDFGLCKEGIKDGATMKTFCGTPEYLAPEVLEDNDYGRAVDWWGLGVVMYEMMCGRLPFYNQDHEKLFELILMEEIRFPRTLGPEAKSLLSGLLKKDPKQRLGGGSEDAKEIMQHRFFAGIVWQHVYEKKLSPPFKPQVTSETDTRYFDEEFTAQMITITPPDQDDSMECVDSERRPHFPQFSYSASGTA
Description: NanoBRET Target Engagement (TE) Intracellular Kinase Assay. Type of test: cell-based.
Conditions: not given
The source says: The NanoBRET™ Target Engagement (TE) Intracellular Kinase Assays are based on the NanoBRET™ System (Promega Corporation), an energy transfer technique designed to measure molecular proximity in living cells. The NanoBRET™ TE Assays measure the apparent affinity of test compounds by competitive displacement of the NanoBRET™ tracer compound, which is a cell permeable molecule engineered to be reversibly bound to a NanoLuc® luciferase-kinase fusion expressed in cells. For compound screening, when a test compound binds to the selected kinase, the BRET signal is attenuated. […] All cells were evaluated for viability prior to transfection and optimization of the transfection was done prior to experimentation. […] Following transfection, cells were washed and resuspended in Opti-MEM. NanoBRET assays were performed in white, 384-well plates (Corning) at a density of 2×10^5 cells/well. All example compounds were prepared as concentrated stock solutions in DMSO (Sigma-Aldrich). Compounds are dissolved in DMSO to make 10 mM stock solution. […] A Labcyte ECHO 550 compound dispenser was used to facilitate compound transfer directly to cells. Cells were equilibrated for 2 hr with energy transfer probes and example compound prior to BRET measurements. […] For target engagement analysis, the energy transfer probes were added to the cells at concentrations optimized for the target in question (AKT E17K). Following compound incubation, NanoBRET NanoGlo Substrate (Promega Cat #Ni57D) and Extracellular Nanoluc Inhibitor (Promega Cat #N235C) was added according to the manufacturer's recommended protocol, and luminescence was measured on Envision Reader (Perkin Elmer) Multimode Luminometer equipped with 450 nm BPfilter (donor) and 600 nm LPfilter (acceptor), using 0.5 s integration time. Milli-BRET units (mBU) are calculated by multiplying the raw BRET values by 1000. Apparent tracer affinity values (EC50) were determined using the sigmoidal dose-response (variable slope). Competitive displacement data were then plotted and data were fit to determine the EC50 value for each example compound.
Background: BRET reads energy transfer from a luciferase to a nearby fluorophore.
For `COc1c(N2CCN(Cc3ccc(-n4c(-c5cccnc5N)nc5ccc(-c6ccccc6)nc54)cc3)CC2)c(=O)c1=O` [Example 21, 3-(4-(4-(2-(2-Aminopyridin-3-yl)-5-phenyl-3H-imidazo[4,5-b]pyridin-3-yl)benzyl)piperazin-1-yl)-4-methoxycyclobut-3-ene-1,2-dione], the EC50 lay within 15 to 60 nM.

`CC(C)Oc1c(N2CCN(Cc3ccc(-n4c(-c5cccnc5N)nc5ccc(-c6ccccc6)nc54)cc3)CC2)c(=O)c1=O` [Example 25, 3-(4-(4-(2-(2-Aminopyridin-3-yl)-5-phenyl-3H-imidazo[4,5-b]pyridin-3-yl)benzyl)piperazin-1-yl)-4-isopropoxycyclobut-3-ene-1,2-dione]: the EC50 is above 600 nM.

Compound `COc1c(NC2CCN(Cc3ccc(-n4c(-c5cccnc5N)nc5cccnc54)cc3)CC2)c(=O)c1=O` [Example 3, 3-((1-(4-(2-(2-Aminopyridin-3-yl)-3H-imidazo[4,5-b]pyridin-3-yl)benzyl)piperidin-4-yl)amino)-4-methoxycyclobut-3-ene-1,2-dione] returned an EC50 of 15 to 60 nM.

For `COc1c(N2C[C@H]3CN(Cc4ccc(-n5c(-c6cccnc6N)nc6ccc(-c7ccccc7)nc65)cc4)C[C@H]3C2)c(=O)c1=O` [Example 86, 3-((3aR,6aS)-5-(4-(2-(2-aminopyridin-3-yl)-5-phenyl-3H-imidazo[4,5-b]pyridin-3-yl)benzyl)hexahydropyrrolo[3,4-c]pyrrol-2(1H)-yl)-4-methoxycyclobut-3-ene-1,2-dione], the EC50 is 15 to 60 nM.

Take `CCOc1c(N2CCN(Cc3ccc(-n4c(-c5cccnc5N)nc5ccc(-c6ccccc6)nc54)cc3)CC2)c(=O)c1=O` [Example 24, 3-(4-(4-(2-(2-Aminopyridin-3-yl)-5-phenyl-3H-imidazo[4,5-b]pyridin-3-yl)benzyl)piperazin-1-yl)-4-ethoxycyclobut-3-ene-1,2-dione]: the EC50 lay within 60 to 600 nM.

In turn, `Nc1ncccc1-c1nc2ccc(-c3ccccc3)nc2n1-c1ccc(CN2CCC(N3CCCSc4c3c(=O)c4=O)CC2)cc1` [Example 85, 6-(1-(4-(2-(2-aminopyridin-3-yl)-5-phenyl-3H-imidazo[4,5-b]pyridin-3-yl)benzyl)piperidin-4-yl)-2-thia-6-azabicyclo[5.2.0]non-1(7)-ene-8,9-dione] displayed an EC50 of 60 to 600 nM.

`COc1c(N2[C@H](C)CN(Cc3ccc(-n4c(-c5cccnc5N)nc5ccc(-c6ccccc6)nc54)cc3)C[C@H]2C)c(=O)c1=O` [Example 69, 3-((2R,6R)-4-(4-(2-(2-aminopyridin-3-yl)-5-phenyl-3H-imidazo[4,5-b]pyridin-3-yl)benzyl)-2,6-dimethylpiperazin-1-yl)-4-methoxycyclobut-3-ene-1,2-dione] came in with an EC50 of 60 to 600 nM.

In the case of `COc1c(N2CCC3(CCN(Cc4ccc(-n5c(-c6cccnc6N)nc6ccc(-c7ccccc7)nc65)cc4)CC3)CC2)c(=O)c1=O` [Example 99, 3-(9-(4-(2-(2-aminopyridin-3-yl)-5-phenyl-3H-imidazo[4,5-b]pyridin-3-yl)benzyl)-3,9-diazaspiro[5.5]undecan-3-yl)-4-methoxycyclobut-3-ene-1,2-dione], the EC50 lay in the range of 15 to 60 nM.

Take `[2H]C([2H])([2H])Oc1c(N2CCN(Cc3ccc(-n4c(-c5cccnc5N)nc5ccc(-c6ccccc6)nc54)cc3)CC2)c(=O)c1=O` [Example 23, 3-(4-(4-(2-(2-Aminopyridin-3-yl)-5-phenyl-3H-imidazo[4,5-b]pyridin-3-yl)benzyl)piperazin-1-yl)-4-(methoxy-d3)cyclobut-3-ene-1,2-dione]: the EC50 is 15 to 60 nM.

Turning to `COc1c(N(C)C2CCN(Cc3ccc(-n4c(-c5cccnc5N)nc5cc(-c6ccccc6)cnc54)cc3)CC2)c(=O)c1=O` [Example 32, 3-((1-(4-(2-(2-Aminopyridin-3-yl)-6-phenyl-3H-imidazo[4,5-b]pyridin-3-yl)benzyl)piperidin-4-yl)(methyl)amino)-4-methoxycyclobut-3-ene-1,2-dione], the 50% effective concentration (EC50) was in the range of 60 to 600 nM.

`COc1c(N2CCC3(CN(Cc4ccc(-n5c(-c6cccnc6N)nc6ccc(-c7ccccc7)nc65)cc4)C3)C2)c(=O)c1=O` [Example 42, 3-(2-(4-(2-(2-Aminopyridin-3-yl)-5-phenyl-3H-imidazo[4,5-b]pyridin-3-yl)benzyl)-2,6-diazaspiro[3.4]octan-6-yl)-4-methoxycyclobut-3-ene-1,2-dione] showed an EC50 of 15 to 60 nM.

In the case of `CNc1c(NC2CCN(Cc3ccc(-n4c(-c5cccnc5N)nc5ccc(-c6ccccc6)nc54)cc3)CC2)c(=O)c1=O` [Example 20, 3-((1-(4-(2-(2-Aminopyridin-3-yl)-5-phenyl-3H-imidazo[4,5-b]pyridin-3-yl)benzyl)piperidin-4-yl)amino)-4-(methylamino)cyclobut-3-ene-1,2-dione], the concentration giving a half-maximal response (EC50) was 60 to 600 nM.

`COc1c(N[C@@H]2CCN(Cc3ccc(-n4c(-c5cccnc5N)nc5ccc(-c6ccccc6)nc54)cc3)C2)c(=O)c1=O` [Example 50, (R)-3-((1-(4-(2-(2-Aminopyridin-3-yl)-5-phenyl-3H-imidazo[4,5-b]pyridin-3-yl)benzyl)pyrrolidin-3-yl)amino)-4-methoxycyclobut-3-ene-1,2-dione] displayed an EC50 of 15 to 60 nM.

Take `CN(c1c(S)c(=O)c1=O)C1CCN(Cc2ccc(-n3c(-c4cccnc4N)nc4ccc(-c5ccccc5)nc43)cc2)CC1` [Example 46, 3-((1-(4-(2-(2-aminopyridin-3-yl)-5-phenyl-3H-imidazo[4,5-b]pyridin-3-yl)benzyl)piperidin-4-yl)(methyl)amino)-4-mercaptocyclobut-3-ene-1,2-dione]: the EC50 was above 600 nM.

The same test, now with this note: read-out: NanoBRET AKT1E17K EC50; HEK-293 cells transfected with NanoLuc-AKT E17K; competitive displacement of NanoBRET tracer; 2 hr equilibration; 10-point 3-fold dilution.
Take `COc1c(N[C@@H]2CCCN(Cc3ccc(-n4c(-c5cccnc5N)nc5ccc(-c6ccccc6)nc54)cc3)C2)c(=O)c1=O` [Example 34, (R)-3-((1-(4-(2-(2-aminopyridin-3-yl)-5-phenyl-3H-imidazo[4,5-b]pyridin-3-yl)benzyl)piperidin-3-yl)amino)-4-methoxycyclobut-3-ene-1,2-dione]: the EC50 was below 15 nM.

Turning to `COc1c(N(C)[C@H]2CCN(Cc3ccc(-n4c(-c5cccnc5N)nc5ccc(-c6ccccc6)nc54)cc3)C2)c(=O)c1=O` [Example 81, (S)-3-((1-(4-(2-(2-aminopyridin-3-yl)-5-phenyl-3H-imidazo[4,5-b]pyridin-3-yl)benzyl)pyrrolidin-3-yl)(methyl)amino)-4-methoxycyclobut-3-ene-1,2-dione], the EC50 is below 15 nM.

In the case of `COc1c(NC2CN(Cc3ccc(-n4c(-c5cccnc5N)nc5ccc(-c6ccccc6)nc54)cc3)C2)c(=O)c1=O` [Example 51, 3-((1-(4-(2-(2-Aminopyridin-3-yl)-5-phenyl-3H-imidazo[4,5-b]pyridin-3-yl)benzyl)azetidin-3-yl)amino)-4-methoxycyclobut-3-ene-1,2-dione], the EC50 is below 15 nM.

Consider `[2H]C([2H])([2H])Oc1c(NC2CCN(Cc3ccc(-n4c(-c5cccnc5N)nc5ccc(-c6ccccc6)nc54)cc3)CC2)c(=O)c1=O` [Example 13, 3-((1-(4-(2-(2-Aminopyridin-3-yl)-5-phenyl-3H-imidazo[4,5-b]pyridin-3-yl)benzyl)piperidin-4-yl)amino)-4-(methoxy-d3)cyclobut-3-ene-1,2-dione], for which the EC50 is below 15 nM.

For `COc1c(N2CC[C@]3(CCN(Cc4ccc(-n5c(-c6cccnc6N)nc6ccc(-c7ccccc7)nc65)cc4)C3)C2)c(=O)c1=O` [Example 66, (S)-3-(7-(4-(2-(2-aminopyridin-3-yl)-5-phenyl-3H-imidazo[4,5-b]pyridin-3-yl)benzyl)-2,7-diazaspiro[4.4]nonan-2-yl)-4-methoxycyclobut-3-ene-1,2-dione], the EC50 is below 15 nM.

On to `COc1c(N(C)C2CCN(C(C)c3ccc(-n4c(-c5cccnc5N)nc5ccc(-c6ccccc6)nc54)cc3)CC2)c(=O)c1=O` (stereo not shown) [Example 90, 3-((1-(1-(4-(2-(2-aminopyridin-3-yl)-5-phenyl-3H-imidazo[4,5-b]pyridin-3-yl)phenyl)ethyl)piperidin-4-yl)(methyl)amino)-4-methoxycyclobut-3-ene-1,2-dione], for which the EC50 is below 15 nM.

For `COc1c(N2CC[C@@]3(CCN(Cc4ccc(-n5c(-c6cccnc6N)nc6ccc(-c7ccccc7)nc65)cc4)C3)C2)c(=O)c1=O` [Example 62, (R)-3-(7-(4-(2-(2-Aminopyridin-3-yl)-5-phenyl-3H-imidazo[4,5-b]pyridin-3-yl)benzyl)-2,7-diazaspiro[4.4]nonan-2-yl)-4-methoxycyclobut-3-ene-1,2-dione], the EC50 was below 15 nM.

With `CCSc1c(N(C)C2CCN(Cc3ccc(-n4c(-c5cccnc5N)nc5ccc(-c6ccccc6)nc54)cc3)CC2)c(=O)c1=O` [Example 49, 3-((1-(4-(2-(2-Aminopyridin-3-yl)-5-phenyl-3H-imidazo[4,5-b]pyridin-3-yl)benzyl)piperidin-4-yl)(methyl)amino)-4-(ethylthio)cyclobut-3-ene-1,2-dione], the EC50 was below 15 nM.

The term EC50 denotes the concentration giving half of the maximal effect.
